Assay results published in paper PMC7034088, “Effect of verapamil on the pharmacokinetics of hydroxycamptothecin and its potential mechanism” (Pharmaceutical Biology, 2020).
Where two headings read alike, the source gives them in different places.

What was measured:
[1] = Metabolic stability of HCPT in rat liver microsomes with or without verapamil; assay type: in vitro ADME; settings: for microsomal CLint at 1 µM: read-out: intrinsic clearance rate
Description: The metabolic stability of HCPT was investigated in rat liver microsomes with or without verapamil. The detailed methods were similar to those reported before (Wang et al. [2017]; Yan et al. [2017]). Briefly, 30 μL rat liver microsome (20 mg/mL), 12 μL HCPT solution (100 μM) and 1113 μL PBS buffer (0.1 M, pH 7.4) were added to the centrifuge tubes on ice. After a 5-min preincubation at 37 °C, the NADPH-generating system (45 μL) was added into the microsomal suspension to initiate the reaction. Meanwhile, the effects of verapamil or ketoconazole (a positive CYP3A4 inhibitor) on the metabolic stability of HCPT were investigated by adding 10 μM of verapamil or ketoconazole (12 μL, final concentration of 0.1 μM) to rat liver microsomes and preincubating them for 30 min at 37 °C, followed by the addition of NADPH-generating system. Aliquots of 100 μL were collected from the reaction volumes at 0.083, 0.167, 0.33, 0.5, 1, 2, 4, 8, 12, 24, and 36 h after the addition of HCPT, and 200 μL ice-cold acetonitrile containing esculin was added to terminate the reaction. All the experiments were performed in triplicate. The subsequent sample preparation method was the same as the plasma sample preparation method, and the concentration of HCPT was determined by LC-MS.
The in vitro half-life (t1/2) was obtained using the equation: t1/2 = 0.693/k; V (μL/mg) = volume of incubation (μL)/protein in the incubation (mg); intrinsic clearance (Clint) (μL/min/mg protein) = V × 0.693/t1/2.

[2] = Bidirectional transport of HCPT in the Caco-2 cell transwell model with or without verapamil; settings: human; for efflux ratio at 2 µM: Caco-2, pH 7.4, efflux ratio, Caco-2 transwell, HCPT 2 μM
Description: (§1) The Caco-2 cell line was obtained from the American Type Culture Collection (Manassas, VA), and it was performed according to the previous study (Liu et al. [2019]). The Caco-2 cells were cultured in DMEM high glucose medium containing 15% FBS, 1% NEAA, and 100 U/mL penicillin and streptomycin. The cells were cultured at 37 °C with 5% CO2. For transport studies, the cells at passage 40 were seeded on transwell polycarbonate insert filters (1.12 cm^2 surface, 0.4 μm pore size, 12 mm diameter; Corning Co-star Corporation, Corning, MA) in 12-well plates at a density of 1 × 10^5 cells/cm^2. Cells were allowed to grow for 21 days. For the first seven days, the medium was replaced every two days, and then daily. The transepithelial electrical resistance (TEER) of the monolayer cells was measured using Millicell ERS-2 (Millipore Corporation, Billerica, MA), and TEER exceeding 400 Ω·cm^2 was used for the flux experiment. […] The alkaline phosphatase activity was validated using an Alkaline Phosphatase Assay Kit. The qualified monolayers were used for transport studies.
(§2) The Caco-2 cell transwell model was employed to investigate the transport of HCPT in the presence or absence of verapamil. The cell monolayers were rinsed twice with warm (37 °C) Hanks’ balanced salt solution (HBSS) before the transport experiments. After that, the cells were incubated at 37 °C for 20 min. HCPT was added to either apical or basolateral side to incubate with the cell monolayers in fresh incubation medium for the indicated times at 37 °C, after preincubation. The volume of incubation medium on the apical and basolateral sides was 0.5 mL and 1.5 mL, respectively, and a 100 μL aliquot of the incubation solution was withdrawn at the indicated time points from the receiver compartment and replaced with the same volume of fresh pre-warmed HBSS buffer. The permeability of HCPT (2 μM) in all of the above conditions for both directions, i.e., from the apical (AP) side to the basolateral (BL) side and from the BL side to the AP side, was measured after incubation for 30, 60, 90, and 120 min at 37 °C. In addition, the efflux activity of P-gp was validated using a typical P-gp substrate digoxin (25 μM).
(§3) The apparent permeability coefficient (Papp) was calculated using the equation of Artursson and Karlsson: Papp=(ΔQ/Δt)×[1/(A×C0)] where Papp is the apparent permeability coefficient (cm/s), ΔQ/Δt (μmol/s) is the rate at which the compound appears in the receiver chamber, C0 (μmol/L) is the initial concentration of the compound in the donor chamber, and A (cm^2) represents the surface area of the cell monolayer. Data were collected from three separate experiments, and each was performed in triplicate.

[3] = In vivo pharmacokinetic study of oral HCPT in rats with or without verapamil pre-treatment; settings: male, Sprague-Dawley, rat, plasma, 50 mg/kg, HCPT 50 mg/kg intragastric/oral, n = 6, Mean ± S.D.; for CL/F: read-out: CLz/F (oral clearance) (converted)
Description: Male Sprague–Dawley rats weighing 230–250 g were provided by Shanghai SLAC Laboratory Animal Co., Ltd (Shanghai, China). Rats were bred in a breeding room at 25 °C with 60 ± 5% humidity and a 12 h dark-light cycle. Tap water and normal chow were given ad libitum. All of the experimental animals were housed under the above conditions, for a 3-day acclimation period and fasted overnight before the experiments. All experimental procedures and protocols were reviewed and approved by the Animal Care and Use Committee of China–Japan Union Hospital of Jilin University and were in accordance with the National Institutes of Health guidelines regarding the principles of animal care.
Rats were divided into two groups of six animals each, with or without pre-treatment of verapamil. The pre-treatment of verapamil on the test group was at a dose of 10 mg/kg/day (dissolved directly in normal saline containing 0.5% methylcellulose at a concentration of 2 mg/mL) for 7 days. Next, 50 mg/kg HCPT was administrated orally. Blood samples (200 μL) were collected into heparinized tubes via the oculi choroidal vein at 0.083, 0.33, 0.5, 1, 2, 4, 6, 8, 10, 12, 24, and 36 h after the oral administration of […]. The blood samples were centrifuged at 3500 rpm for 5 min. The plasma samples that were obtained were stored at −40 °C until analysis.
To obtain 100 μL aliquot of plasma sample, 20 μL methanol and 180 μL internal standard methanol solution (2 ng/mL) were added and vortexed for 60 s to mix in a 1.5 mL polypropylene tube, and were centrifuged at 12,000 rpm for 10 min. The supernatant was removed into an injection vial, and a 3 μL aliquot was injected into the LC-MS/MS system for analysis.
The determination of HCPT was performed on an Agilent 1290 series liquid chromatography system and an Agilent 6470 triple-quadruple mass spectrometer (Palo Alto, CA). The HPLC/MS conditions and sample preparation were basically according to a validated HPLC method described before (Zhang et al. [2019]). The chromatographic analysis of HCPT was performed on a Waters X-Bridge C18 column (3.0 × 100 mm, i.d.; 3.5 μm, Waters Corporation, Milford, MA ) at room temperature (25 °C). The mobile phase was water (containing 0.1% formic acid) and acetonitrile (30:70, v: v) with isocratic elution at a flow rate of 0.2 mL/min, and the analysis time was 4 min.
The mass scan mode was positive MRM mode. The precursor ion and product ion are m/z 365.20→321.10 for HCPT and m/z 349.25→305.15 for IS. The collision energy for HCPT and IS were 30 and 20 eV, respectively. The MS/MS conditions were optimized as follows: fragmentor, 110 V; capillary voltage, 3.5 kV; Nozzle voltage, 500 V; nebulizer gas pressure (N2), 40 psig; drying gas flow (N2), 10 L/min; gas temperature, 350 °C; sheath gas temperature, 400 °C; sheath gas flow, 11 L/min.
Pharmacokinetic parameters, including the area under the plasma concentration–time curve (AUC), maximal plasma concentration (Cmax), the time for the maximal plasma concentration (Tmax), and the mean residence time (MRT), were calculated using the DAS 3.0 pharmacokinetic software (Chinese Pharmacological Association, Anhui, China).

Caco-2 cell monolayers = experiment: Bidirectional transport of HCPT in the Caco-2 cell transwell model with or without verapamil; settings: Caco-2 transwell, digoxin 25 μM, with addition of verapamil
Description: as §1, §2, §3

P-gp = experiment: as above; settings: human, Caco-2, efflux ratio, Caco-2 transwell, digoxin 25 μM (P-gp substrate validation), without verapamil
Description: as §1, §2, §3

[4] = pH 7.4, with verapamil, final concentration 0.1 µM, in the presence of verapamil (preincubation 30 min at 37 °C)
[5] = pre-treatment of verapamil 10 mg/kg/day for 7 days

Work on `CC[C@@]1(O)C(=O)OCc2c1cc1n(c2=O)Cc2cc3cc(O)ccc3nc2-1` [HCPT, Hydroxycamptothecin] yielded a half-life at 1 µM [1, 4] of 0.807 ± 0.0085 h, a microsomal CLint at 1 µM [1, 4] of 28.6 ± 0.3 µL/min/mg and a half-life at 1 µM ([1]; pH 7.4, without verapamil) of 0.585 ± 0.00533 h. It also gave a microsomal CLint at 1 µM ([1]; pH 7.4, without verapamil) of 39.5 ± 0.42 µL/min/mg, a Papp B→A at 2 μM ([2]; Caco-2, pH 7.4) of 0.205 ×10⁻⁶ cm/s and an efflux ratio at 2 µM ([2]; in the presence of verapamil) of 1.21. For the same compound, the efflux ratio at 2 µM ([2]; without verapamil) was 1.82, the AUC(0-t) ([3]; control (no verapamil)) was 660 ± 100 ng·h/mL and the Cmax ([3]; control (no verapamil)) was 92 ± 11.3 ng/mL. For the same compound, the MRT ([3]; control (no verapamil)) was 9.61 ± 0.55 h, the Tmax ([3]; control (no verapamil)) was 1.12 ± 0.14 h and the half-life ([3]; control (no verapamil)) was 17.7 ± 3.6 h. It also gave a CL/F ([3]; control (no verapamil)) of 1060 mL/min/kg, an AUC(0-t) [3, 5] of 1140 ± 290 ng·h/mL and a Cmax [3, 5] of 125 ± 13.5 ng/mL. It also gave an MRT [3, 5] of 11.4 ± 0.78 h, a Tmax [3, 5] of 0.89 ± 0.09 h and a half-life [3, 5] of 23 ± 6.71 h. It also gave a CL/F [3, 5] of 549 mL/min/kg.
With `C[C@H]1O[C@@H](O[C@H]2[C@@H](O)C[C@H](O[C@H]3[C@@H](O)C[C@H](O[C@H]4CC[C@@]5(C)[C@H](CC[C@@H]6[C@@H]5C[C@@H](O)[C@]5(C)[C@@H](C7=CC(=O)OC7)CC[C@]65O)C4)O[C@@H]3C)O[C@@H]2C)C[C@H](O)[C@@H]1O` [digoxin] the “efflux ratio, effect of addition of verapamil” value (Caco-2 cell monolayers) was “abrogated it” and the efflux ratio at 25 µM (P-gp) was 11.
